Laboratory results as given in patent US4118418A, “5-Phenenyltris (ureylene) triisophthalic acid salts” (American Cyanamid Company, priority 1977, dated 1978).
Counter-ions that a name gives are not always drawn.

Experiments:
[1] = test system: shunt pathway activated by cobra venom factor; test: Test, Code 036 (C-Shunt inhibitor), lysis of human erythrocytes in autologous serum via shunt pathway; format: cell-based; details: Table I; two-fold serial dilutions
Excerpt: (§1) An active inhibitor protects C2 from C1 and C4; (ii) Test, Code O35 (C3-C9 inhibitor) -- This test determines the ability of the late components of human complement (C3-C9) to lyse EAC l42 in the presence of appropriate dilutions of the test compound. An active inhibitor protects EAC 142 from lysis by human C3-C9; (iii) Test, Code 036 (C-Shunt inhibitor) -- In this test human erythrocytes rendered fragile are lysed in autologous serum via the shunt pathway activated by cobra venom factor in the presence of appropriate dilutions of the test compound. Inhibition of the shunt pathway results in failure of lysis; (iv) Forssman Vasculitis Test -- Here, the well known complement dependent lesion, Forssman vasculitis, is produced in guinea pigs by intradermal injection of rabbit anti-Forssman antiserum. […]

[2] = target: T1, activated human C1 (Homo sapiens, UniProt P09871); test: Test, Code 026 (C1 inhibitor); format: biochemical; details: Table II; highest active serial dilution
T1 sequence (P09871 16-688): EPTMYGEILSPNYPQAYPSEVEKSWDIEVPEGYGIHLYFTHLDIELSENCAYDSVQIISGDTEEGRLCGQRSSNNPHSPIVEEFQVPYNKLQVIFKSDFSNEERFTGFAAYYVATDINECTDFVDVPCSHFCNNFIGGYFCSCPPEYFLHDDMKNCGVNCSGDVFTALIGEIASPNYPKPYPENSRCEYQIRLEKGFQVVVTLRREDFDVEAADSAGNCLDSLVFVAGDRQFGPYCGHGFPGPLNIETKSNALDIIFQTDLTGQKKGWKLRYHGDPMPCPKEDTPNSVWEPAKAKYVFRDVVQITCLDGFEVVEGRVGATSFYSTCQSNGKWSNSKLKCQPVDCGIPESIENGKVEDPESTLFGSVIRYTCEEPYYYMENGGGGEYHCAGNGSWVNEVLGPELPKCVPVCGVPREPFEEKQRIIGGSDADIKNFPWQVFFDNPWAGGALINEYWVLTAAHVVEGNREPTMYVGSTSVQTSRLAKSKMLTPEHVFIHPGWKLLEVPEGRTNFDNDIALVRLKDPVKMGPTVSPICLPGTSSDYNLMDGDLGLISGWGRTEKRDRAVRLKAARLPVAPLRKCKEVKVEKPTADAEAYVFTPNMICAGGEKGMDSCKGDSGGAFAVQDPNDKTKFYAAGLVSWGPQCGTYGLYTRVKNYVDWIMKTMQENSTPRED
T1 sequence (P00736 18-705 partner): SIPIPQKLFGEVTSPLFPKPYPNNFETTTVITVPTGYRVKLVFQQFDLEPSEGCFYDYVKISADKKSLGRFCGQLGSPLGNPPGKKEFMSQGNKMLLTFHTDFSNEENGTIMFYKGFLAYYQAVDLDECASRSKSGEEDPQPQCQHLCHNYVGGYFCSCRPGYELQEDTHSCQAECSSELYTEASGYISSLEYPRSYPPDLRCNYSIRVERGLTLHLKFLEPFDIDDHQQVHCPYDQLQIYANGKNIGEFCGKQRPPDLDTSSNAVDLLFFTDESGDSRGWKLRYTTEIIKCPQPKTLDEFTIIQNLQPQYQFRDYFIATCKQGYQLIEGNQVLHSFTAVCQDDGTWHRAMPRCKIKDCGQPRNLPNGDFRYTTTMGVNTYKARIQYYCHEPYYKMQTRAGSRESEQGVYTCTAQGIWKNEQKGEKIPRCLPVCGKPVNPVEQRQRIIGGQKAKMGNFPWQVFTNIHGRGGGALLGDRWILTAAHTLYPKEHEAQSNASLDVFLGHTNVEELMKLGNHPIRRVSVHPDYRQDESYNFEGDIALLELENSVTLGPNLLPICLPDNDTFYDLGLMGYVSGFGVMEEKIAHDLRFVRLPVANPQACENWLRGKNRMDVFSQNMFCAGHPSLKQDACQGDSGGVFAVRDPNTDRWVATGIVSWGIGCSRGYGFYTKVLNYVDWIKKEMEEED
T1 sequence (P02745 23-245 partner): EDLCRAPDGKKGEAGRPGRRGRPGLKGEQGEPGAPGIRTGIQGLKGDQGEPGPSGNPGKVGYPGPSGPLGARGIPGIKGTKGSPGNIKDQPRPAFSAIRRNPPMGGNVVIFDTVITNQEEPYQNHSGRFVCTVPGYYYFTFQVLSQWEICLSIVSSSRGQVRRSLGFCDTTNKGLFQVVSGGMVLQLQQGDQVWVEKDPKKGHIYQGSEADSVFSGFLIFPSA
T1 sequence (P02746 28-253 partner): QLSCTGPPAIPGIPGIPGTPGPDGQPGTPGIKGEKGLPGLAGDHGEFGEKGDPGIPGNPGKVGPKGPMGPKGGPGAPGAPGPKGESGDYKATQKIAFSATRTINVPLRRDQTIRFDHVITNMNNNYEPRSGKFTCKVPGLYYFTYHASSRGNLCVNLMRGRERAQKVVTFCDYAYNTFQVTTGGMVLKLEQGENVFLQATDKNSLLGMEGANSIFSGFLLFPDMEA
T1 sequence (P02747 29-245 partner): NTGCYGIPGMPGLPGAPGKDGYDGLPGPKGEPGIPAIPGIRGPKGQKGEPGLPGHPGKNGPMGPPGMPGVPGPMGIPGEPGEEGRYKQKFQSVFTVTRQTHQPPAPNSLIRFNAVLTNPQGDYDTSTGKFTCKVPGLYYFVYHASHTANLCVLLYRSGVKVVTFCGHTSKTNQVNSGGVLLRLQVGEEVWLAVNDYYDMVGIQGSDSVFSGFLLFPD
Excerpt: as §1

[3] = target: T1, activated human C1; test: Intrinsic Therapeutic Index (Code 026 C1 inhibitor test versus anti-coagulant test); details: Table II
Excerpt: The computation of an Intrinsic Therapeutic Index (ITI) was devised to correlate the results expressed in wells, obtained in the in vitro Code 026 (C1 inhibitor) test and the in vitro anti-coagulant (AC) test into a meaningful value which would aid in the net evaluation of the activity of the compounds of this invention.
The ITI is thus a measure of the separation of anti-complement and anti-coagulant activities; the higher the numerical value the more therapeutically useful the separation of activities.

[4] = test system: whole complement; test: Complement Level Reduction Test, whole complement in serum of dosed guinea pigs by capillary tube assay; format: in vivo; details: i.p., 200 mg/kg
Excerpt: An active inhibitor protects C2 from C1 and C4; (ii) Test, Code O35 (C3-C9 inhibitor) -- This test determines the ability of the late components of human complement (C3-C9) to lyse EAC l42 in the presence of appropriate dilutions of the test compound. An active inhibitor protects EAC 142 from lysis by human C3-C9; (iii) Test, Code 036 (C-Shunt inhibitor) -- In this test human erythrocytes rendered fragile are lysed in autologous serum via the shunt pathway activated by cobra venom factor in the presence of appropriate dilutions of the test compound. Inhibition of the shunt pathway results in failure of lysis; (iv) Forssman Vasculitis Test -- Here, the well known complement dependent lesion, Forssman vasculitis, is produced in guinea pigs by intradermal injection of rabbit anti-Forssman antiserum. The lesion is measured in terms of diameter, edema and hemorrhage and the extent to which a combined index of these is inhibited by prior intraperitoneal injection of the test compound at 200 mg/kg is then reported, unless otherwise stated; (v) Forssman Shock Test -- Lethal shock is produced in guinea pigs by an i.v. injection of anti-Forssman antiserum and the harmonic mean death time of treated guinea pigs is compared with that of simultaneous controls; (vi) Complement Level Reduction Test -- In this test, the above dosed guinea pigs, or others, are bled for serum and the complement level is determined in undiluted serum by the capillary tube method of U.S. Pat. No. 3,876,376 and compared to undosed control guinea pigs; and (vii) Cap 50 Test -- Here, appropriate amounts of the test compound are added to a pool of guinea pig serum in vitro, after which the undiluted serum capillary tube assay referred to above is run. The concentration of compound inhibiting 50% is reported.
With reference to Table I, guinea pigs weighing about 300 g were dosed intravenously (i.v.) or intraperitoneally (i.p.) with 200 mg/kg of the test compound dissolved in saline and adjusted to pH 7-8. […] Percent inhibition was calculated by comparison with simultaneous controls. […]

[5] = test system: Citrated sheep plasma; test: in vitro anti-coagulant activity (AC), clotting of recalcified citrated sheep plasma; format: biochemical
Experimental: The sheep RBC's, kept in suspension throughout the clotting incubation time, become enmeshed in the fibrin matrix if a clot forms. Upon centrifugation of the plate, untrapped RBC's form buttons, the sizes of which correspond to the degree of clot inhibition; this providing a measure of anti-coagulant activity (AC). Sodium heparin is used as a positive control and activity is reported in wells appearing in Table I.
**Activity in wells a serial dilution assay. Higher well number indicates
higher activity. The serial dilutions are two-fold.

[6] = test system: complement system; details: literature; cited from earlier work
[7] = test system: hereditary angioneurotic edema; details: New England Journal of Medicine, 286, 808-812 (1972); cited from earlier work
[8] = test system: human serum total hemolytic complement; details: in vitro and in vivo, reduction in total hemolytic complement activity; Pathologie Biologie, 25, 33-36 (1977); cited from earlier work

Compound: O=C(Nc1cc(NC(=O)Nc2cc(C(=O)O)cc(C(=O)O)c2)cc(NC(=O)Nc2cc(C(=O)O)cc(C(=O)O)c2)c1)Nc1cc(C(=O)O)cc(C(=O)O)c1 [5,5',5"-(s-Phenenyltriureylene)triisophthalic acid hexasodium salt]
- Shunt Inhibition 036 Wells [1]: +1 Wells
- In Vitro Activity, Complement Inhibiting Activity (Wells) Code 026 [2]: +6 Wells
- Intrinsic Therapeutic Index ([3]; antilogarithm (base 2) of the difference in wells): 256
- Logarithmic Difference Expressed as Wells ([3]; log (base 2) difference Code 026 minus AC): +8 Wells
- In Vivo Activity (Guinea Pig) % Inhibition, Intraperitoneal, 30 mins. ([4]; 30 mins.): -43%
- In Vivo Activity (Guinea Pig) % Inhibition, Intraperitoneal, 60 mins. ([4]; 60 mins.): -9%
- In Vivo Activity (Guinea Pig) % Inhibition, Intraperitoneal, 120 mins. ([4]; 120 mins.): -41%
- AC Wells ([5]; Table I, anti-coagulant activity, two-fold serial dilutions): < -2 Wells
- In Vitro Activity, Anti-Coagulant Activity (Wells) AC ([5]; Table II, highest active serial dilution): -2 Wells

Compound: Cc1ccc(C(=O)Nc2ccc(S(=O)(=O)O)c3cc(S(=O)(=O)O)cc(S(=O)(=O)O)c23)cc1NC(=O)c1cccc(NC(=O)Nc2cccc(C(=O)Nc3cc(C(=O)Nc4ccc(S(=O)(=O)O)c5cc(S(=O)(=O)O)cc(S(=O)(=O)O)c45)ccc3C)c2)c1 [Suramin]
- anticomplementary effect / complement inhibition [6]: competitive inhibitor of the complement system
- use in treatment of hereditary angioneurotic edema [7]: used with success

Compound: Nc1ccc2cc(S(=O)(=O)O)cc(O)c2c1N=Nc1ccc(NC(=O)Nc2ccc(N=Nc3c(N)ccc4cc(S(=O)(=O)O)cc(O)c34)c(S(=O)(=O)O)c2)cc1S(=O)(=O)O [chlorazol fast pink, 3,3'-ureylenebis-[6-(2-amino-8-hydroxy-6-sulfo-1-naphthylazo)]benzenesulfonic acid, tetrasodium salt]
- anticomplementary effect / complement inhibition [6]: anticomplementary effect

Compound: NCCCCCC(=O)O [epsilon-aminocaproic acid]
- use in treatment of hereditary angioneurotic edema [7]: used with success

Compound: NC[C@H]1CC[C@H](C(=O)O)CC1 [tranexamic acid]
- use in treatment of hereditary angioneurotic edema [7]: used with success

Compound: heparin
- anticomplementary effect / complement inhibition [6]: anticomplementary effect

Compound: pentosan-poly-sulfoester
- anticomplementary activity on human serum [8]: anticomplementary activity on human serum both in vitro and in vivo
